Data taken from patent US11046714B2, “2,2-difluorodioxolo A2A receptor antagonists” (Merck Sharp & Dohme Corp., priority 2013, dated 2021).

Target: human A2A receptor (Homo sapiens (Human), UniProt P29274)
Experiment: competition binding assay using Scintillation Proximity technology
Conditions: membranes from CHO-K1 cells expressing the human A2a receptor; 2.0 nM tritiated compound; Cheng-Prusoff
Summary of the method: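 Membranes (1.0 μg) from CHO-K1 cells expressing human A2A were treated with adenosine deaminase, then incubated 1 h at room temperature with compound (3000–0.15 nM) and 2.0 nM tritiated SCH-type ligand on WGA SPA beads in PBS plus 10 mM MgCl2. Nonspecific binding was defined with 1 μM CGS 15943. Ki was derived from EC50 via Cheng-Prusoff.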

Chain of human A2A receptor (P29274 whole entry): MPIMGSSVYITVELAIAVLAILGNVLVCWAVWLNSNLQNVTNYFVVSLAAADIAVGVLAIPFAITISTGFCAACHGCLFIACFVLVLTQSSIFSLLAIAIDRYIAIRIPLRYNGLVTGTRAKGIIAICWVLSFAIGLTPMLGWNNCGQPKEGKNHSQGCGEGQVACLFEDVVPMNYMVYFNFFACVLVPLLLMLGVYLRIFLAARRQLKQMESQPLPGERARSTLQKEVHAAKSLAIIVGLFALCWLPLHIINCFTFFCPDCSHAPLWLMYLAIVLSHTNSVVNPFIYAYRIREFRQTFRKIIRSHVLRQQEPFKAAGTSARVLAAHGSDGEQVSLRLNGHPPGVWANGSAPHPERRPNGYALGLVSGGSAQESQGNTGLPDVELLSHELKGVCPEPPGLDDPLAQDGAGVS

| SMILES | Ki [nM] |
| --- | --- |
| CCC1(F)CN(Cc2nc3c4ccc5c(c4nc(N)n3n2)OC(F)(F)O5)C1 [Example 112, 8-[(3-ethyl-3-fluoroazetidin-1-yl)methyl]-2,2-difluoro[1,3] dioxolo[4,5-h][1,2,4]triazolo[1,5-c]quinazolin-5-amine] | 2 |
| Nc1nc2c3c(ccc2c2nc(CN4CC(O)(C(F)(F)F)C4)nn12)OC(F)(F)O3 [Example 113, 11-[(5-amino-2,2-difluoro[1,3]dioxolo [4,5-h][1,2,4]triazolo[1,5-c]quinazolin-8-yl)methyl]-3-(trifluoromethyl) azetidin-3-ol] | 2.8 |
| Nc1nc2c3c(ccc2c2nc(CN4CC(F)(C(F)(F)F)C4)nn12)OC(F)(F)O3 [Example 114, 2,2-difluoro-8-{[3-fluoro-3-(trifluoromethyl)azetidin-1-yl]methyl} [1,3]dioxolo[4,5-h][1,2,4]triazolo[1,5-c]quinazolin-5-amine] | 1.4 |
| Nc1nc2c3c(ccc2c2nc(CN4C[C@H](F)[C@@H](F)C4)nn12)OC(F)(F)O3 [Example 115, 8-{[(3S,4S)-3,4-difluoropyrrolidin-1-yl]methyl}-2,2-difluoro[1,3] dioxolo[4,5-h][1,2,4]triazolo[1,5-c]quinazolin-5-amine] | 4.4 |
| Nc1nc2c3c(ccc2c2nc(CN4CCC(F)(F)C4)nn12)OC(F)(F)O3 [Example 116, 8-[(3,3-difluoropyrrolidin-1-yl)methyl]-2,2-difluoro[1,3]dioxolo[4,5-h][1,2,4] triazolo[1,5-c]quinazolin-5-amine] | 1.8 |
| Nc1nc2c3c(ccc2c2nc(CN4CCC(Oc5ccc(F)cc5)CC4)nn12)OC(F)(F)O3 [Example 117, 2,2-difluoro-8-{[4-(4-fluorophenoxy)piperidin-1-yl]methyl}[1,3]dioxolo [4,5-h][1,2,4]triazolo[1,5-c]quinazolin-5-amine] | 4.9 |
| Nc1nc2c3c(ccc2c2nc(CN4CCCC(F)(F)C4)nn12)OC(F)(F)O3 [Example 118, 8-[(3,3-difluoropiperidin-1-yl)methyl]-2,2-difluoro[1,3]dioxolo[4,5-h][1,2,4] triazolo[1,5-c]quinazolin-5-amine] | 4.2 |
| Nc1nc2c3c(ccc2c2nc(CN4CCC(F)(F)CC4)nn12)OC(F)(F)O3 [Example 119, 8-[(4,4-difluoropiperidin-1-yl)methyl]-2,2-difluoro[1,3]dioxolo[4,5-h][1,2,4] triazolo[1,5-c]quinazolin-5-amine] | 1.7 |
| Nc1nc2c3c(ccc2c2nc(CN4Cc5ccc(F)cc5C4)nn12)OC(F)(F)O3 [Example 120, 2,2-difluoro-8-[(5-fluoro-1,3-dihydro-2H-isoindol-2-yl)methyl][1,3] dioxolo[4,5-h][1,2,4]triazolo[1,5-c]quinazolin-5-amine] | 2.7 |
| Nc1nc2c3c(ccc2c2nc(CN4Cc5cnc(C(F)(F)F)nc5C4)nn12)OC(F)(F)O3 [Example 121, 2,2-difluoro-8-{[2-(trifluoromethyl)-5,7-dihydro-6H-pyrrolo[3,4-d]pyrimidin-6-yl]methyl}[1,3]dioxolo [4,5-h][1,2,4]triazolo[1,5-c]quinazolin-5-amine] | 16 |
| CCc1nnc2n1CCN(Cc1nc3c4ccc5c(c4nc(N)n3n1)OC(F)(F)O5)C2 [Example 122, 8-[(3-ethyl-5,6-dihydro[1,2,4]triazolo [4,3-a]pyrazin-7(8H)-yl)methyl]-2,2-difluoro[1,3]dioxolo[4,5-h][1,2,4] triazolo[1,5-c]quinazolin-5-amine] | 110 |
| Nc1nc2c3c(ccc2c2nc(CN4Cc5ccc(C(F)(F)F)cc5C4)nn12)OC(F)(F)O3 [Example 123, 2,2-difluoro-8-{[5-(trifluoromethyl)-1,3-dihydro-2H-isoindol-2-yl]methyl} [1,3]dioxolo[4,5-h][1,2,4]triazolo[1,5-c]quinazolin-5-amine] | 4.9 |
| Nc1nc2c3c(ccc2c2nc(CNCc4ccc(C(F)(F)F)cc4)nn12)OC(F)(F)O3 [Example 124, 2,2-difluoro-8-({[4-(trifluoromethyl)benzyl]amino}methyl)[1,3]dioxolo [4,5-h][1,2,4]triazolo[1,5-c]quinazolin-5-amine] | 1.6 |
| Nc1nc2c3c(ccc2c2nc(CNC4(C(F)(F)F)CCC4)nn12)OC(F)(F)O3 [Example 125, 2,2-difluoro-8-({[1-(trifluoromethyl)cyclobutyl]amino}methyl)[1,3]dioxolo [4,5-h][1,2,4]triazolo[1,5-c]quinazolin-5-amine] | 1.1 |
| CN(C)Cc1nc2c3ccc4c(c3nc(N)n2n1)OC(F)(F)O4 [Example 126, 8-[(dimethylamino)methyl]-2,2-difluoro[1,3]dioxolo[4,5-h][1,2,4] triazolo[1,5-c]quinazolin-5-amine] | 29 |
| Cc1csc(CN(Cc2nc3c4ccc5c(c4nc(N)n3n2)OC(F)(F)O5)CC2CC2)n1 [Example 127, 8-({(cyclopropylmethyl)[(4-methyl-1,3-thiazol-2-yl)methyl]amino}methyl)-2,2-difluoro[1,3]dioxolo[4,5-h][1,2,4] triazolo[1,5-c]quinazolin-5-amine] | 1.4 |
| Nc1nc2c3c(ccc2c2nc(Cn4cccn4)nn12)OC(F)(F)O3 [Example 128, 8-((1H-pyrazol-1-yl)methyl)-2,2-difluoro-[1,3]dioxolo[4,5-h][1,2,4]triazolo[1,5-c]quinazolin-5-amine] | 2.5 |
| Cc1cc(C)n(Cc2nc3c4ccc5c(c4nc(N)n3n2)OC(F)(F)O5)n1 [Example 129, 8-[(3,5-dimethyl-1H-pyrazol-1-yl)methyl]-2,2-difluoro[1,3]dioxolo[4,5-h][1,2,4]triazolo[1,5-c]quinazolin-5-amine] | 1 |
| Nc1nc2c3c(ccc2c2nc(Cn4nc(C(F)(F)F)cc4C(F)(F)F)nn12)OC(F)(F)O3 [Example 130, 8-{[3,5-bis(trifluoromethyl)-1H-pyrazol-1-yl]methyl}-2,2-difluoro [1,3]dioxolo[4,5-h][1,2,4]triazolo [1,5-c]quinazolin-5-amine] | 3.9 |
| Nc1nc2c3c(ccc2c2nc([C@@H]4CCCN(CC(F)F)C4)nn12)OC(F)(F)O3 [Example 139, (R)-8-(1-(2,2-difluoroethyl)piperidin-3-yl)-2,2-difluoro-[1,3]dioxolo[4,5-h][1,2,4]triazolo[1,5-c]quinazolin-5-amine] | 1.5 |
| Nc1nc2c3c(ccc2c2nc(CC(CCl)CCl)nn12)OC(F)(F)O3 [Example 150, 8-[3-chloro-2-(chloromethyl)propyl]-2,2-difluoro[1,3]dioxolo[4,5-h][1,2,4]triiazolo[1,5-c]quinazolin-5-amine] | 2.3 |

Continued, values first:

| Ki [nM] | SMILES |
| --- | --- |
| 1.9 | Nc1nc2c3c(ccc2c2nc(CCCN4Cc5cccnc5C4)nn12)OC(F)(F)O3 [Example 137, 8-(3-(5H-pyrrolo[3,4-b]pyridin-6(7H)-yl)propyl)-2,2-difluoro-[1,3]dioxolo[4,5-h][1,2,4]triazolo[1,5-c]quinazolin-5-amine] |
| 1 | Nc1nc2c3c(ccc2c2nc([C@@H]4CCCN(CC(F)(F)F)C4)nn12)OC(F)(F)O3 [Example 138, (R)-2,2-difluoro-8-(1-(2,2,2-trifluoroethyl)piperidin-3-yl)-[1,3]dioxolo[4,5-h][1,2,4]triazolo[1,5-c]quinazolin-5-amine] |
| 2 | COC(=O)C(Cc1nc2c3ccc4c(c3nc(N)n2n1)OC(F)(F)O4)C(=O)OC [Example 148, dimethyl [(5-amino-2,2-difluoro[1,3]dioxolo[4,5-h][1,2,4]triazolo[1,5-c]quinazolin-8-yl)methyl]propanedioate] |
| 2.7 | Nc1nc2c3c(ccc2c2nc(CC(CO)CO)nn12)OC(F)(F)O3 [Example 149, 2-[(5-amino-2,2-difluoro[1,3]dioxolo[4,5-h][1,2,4]triazolo[1,5-c]quinazolin-8-yl)methyl]propane-1,3-diol] |
| 65 | Nc1nc2c3c(ccc2c2nc(CC4CN(C5CCC5)C4)nn12)OC(F)(F)O3 [Example 151, 8-[(1-cyclobutylazetidin-3-yl)methyl]-2,2-difluoro[1,3]dioxolo[4,5-h][1,2,4]triazolo[1,5-c]quinazolin-5-amine] |
| 5.5 | CC(F)(F)CN1CC(Cc2nc3c4ccc5c(c4nc(N)n3n2)OC(F)(F)O5)C1 [Example 152, 8-{[1-(2,2-difluoropropyl)azetidin-3-yl]methyl}-2,2-difluoro[1,3] dioxolo[4,5-h][1,2,4]triazolo[1,5-c]quinazolin-5-amine] |
| 170 | Nc1nc2c3c(ccc2c2nc(CC4CN(c5ccccn5)C4)nn12)OC(F)(F)O3 [Example 153, 2,2-difluoro-8-[(1-pyridin-2-ylazetidin-3-yl)methyl][1,3] dioxolo[4,5-h][1,2,4]triazolo [1,5-c]quinazolin-5-amine] |
| 19 | Nc1nc2c3c(ccc2c2nc(C[C@H](N)C4CC4)nn12)OC(F)(F)O3 [Example 158, 8-[(2S)-2-amino-2-cycloproplethyl]-2,2-difluoro[1,3]dioxolo[4,5-h][1,2,4]triazolo[1,5-c]quinazolin-5-amine] |
| 180 | Nc1nc2c3c(ccc2c2nc(C[C@@H](N)C4CC4)nn12)OC(F)(F)O3 [Example 159, 8-[(2R)-2-amino-2-cyclopropylethyl]-2,2-difluoro[1,3]dioxolo[4,5-h][1,2,4]triazolo[1,5-c]quinazolin-5-amine] |
| 16 | Nc1nc2c3c(ccc2c2nc([C@H]4CC[C@H](N5CCCC(F)(F)C5)C4)nn12)OC(F)(F)O3 [Example 160, 8-[(1S,3S)-3-(3,3-difluoropiperidin-1-yl)cyclopentyl]-2,2-difluoro[1,3]dioxolo[4,5-h][1,2,4]triazolo[1,5-c]quinazolin-5-amine] |
| 32 | Nc1nc2c3c(ccc2c2nc([C@H]4CC[C@@H](N5CCCC(F)(F)C5)C4)nn12)OC(F)(F)O3 [Example 161, 8-[(1S,3R)-3-(3,3-difluoropiperidin-1-yl)cyclopentyl]-2,2-difluoro[1,3]dioxolo[4,5-h][1,2,4]triazolo[1,5-c]quinazolin-5-amine] |
